Where “and” joins values, the source holds several entries; their conditions need not be identical. Equal values may be shown once. Read-outs that look alike come from different tables or passages of the source.
Assays:
PaOctβ2R-HA [1] = experiment: Antagonist inhibition of octopamine-activated PaOctβ2R-HA (cAMP via CNG channel / Fluo-4); type: cell-based, Periplaneta americana; details: 1 × 10^−9 M octopamine; for Maximal Inhibition of octopamine-activated PaOctβ2R-HA activity: 1 × 10^−4 M IBMX
Description: (§1) The reduction of cellular cAMP production, monitored as a decrease in Fluo-4 fluorescence (see Section 4.9), was quantified and normalized to the value obtained without adding antagonists (=100%). Normalized data were used to construct inhibitor concentration-response curves.
(§2) Ligand concentrations that led to half-maximal inhibition of PaOctβ2R-HA (IC50) were determined from the concentration-response curves.
(§3) A stably transfected cell line was established to examine PaOctβ2R-HA receptor activity by Ca^2+ imaging. Control measurements were performed in the parental (flpTM) cell line. Changes in [cAMP]i were registered indirectly via co-expressed CNG channels that are opened by cAMP and cause an influx of extracellular Ca^2+ [18, 26, 91]. Changes in [Ca^2+]i were monitored with the Ca^2+-sensitive fluorescent dye Fluo-4. Cells were grown in 96-well dishes to a density of approximately 2 × 10^4 cells per well and were loaded at room temperature with Fluo-4 AM as described previously. After 90 min, the loading solution was substituted for dye-free extracellular solution (ECS; 120 mM NaCl, 5 mM KCl, 2 mM MgCl2, 2 mM CaCl2, 10 mM HEPES, and 10 mM glucose, pH 7.4 (NaOH)) containing 100 µM 3-isobutyl-1-methylxanthine (IBMX; Sigma-Aldrich/Merck, Darmstadt, Germany) as an inhibitor of cell-endogenous phosphodiesterases. The plate was transferred into a fluorescence reader (FLUOstar Omega, BMG Labtech, Ortenberg, Germany) to monitor Fluo-4 fluorescence. The excitation wavelength was 485 nm. Fluorescence emission was detected at 520 nm. Concentration series of various biogenic amines and synthetic receptor ligands were added once Fluo-4 fluorescence had reached a stable value in each well. The changes in Fluo-4 fluorescence were recorded automatically. Concentration-response curves were established from at least three independent experiments. Data points were derived from four-fold or eightfold determination.

PaOctβ2R-HA [2] = experiment: Antagonist inhibition of tyramine-activated PaOctβ2R-HA (cAMP via CNG channel / Fluo-4); type: cell-based, Periplaneta americana; details: 1 × 10^−7 M tyramine; for Maximal Inhibition of tyramine-activated PaOctβ2R-HA activity: 1 × 10^−4 M IBMX
Description: as §1, §2, §3

PaOctβ2R-HA [3] = experiment: Agonist-evoked cAMP production in PaOctβ2R-HA-expressing flpTM cells (CNG channel / Fluo-4 Ca2+ imaging); type: cell-based, Periplaneta americana; details: for increase in [cAMP]i in PaOctβ2R-HA-expressing cells: biogenic amines at 0.1 and 1 µM; for increase in [cAMP]i in PaOctβ2R-HA-expressing cells / concentration at which the concentration-response curve saturated: 100 µM IBMX; for concentration at which the concentration-response curve saturated: flpTM + PaOctβ2R-HA cells
From the text: (§4) These insect receptors are preferentially activated by octopamine and to a certain extent by tyramine as well. In a first series of experiments, we thus examined the ability of different biogenic amines, i.e., octopamine, tyramine, dopamine, histamine, and serotonin, to evoke PaOctβ2R-HA-dependent cAMP production in receptor-expressing as well as in the parental (flpTM) cell line. Increasing [cAMP]i cause opening of the CNG channels and influx of extracellular Ca^2+ which was detected by the Ca^2+-sensitive dye FLUO-4.
(§5) In a next step, concentration series of octopamine and tyramine ranging from 10^−12 M to 10^−7 M for octopamine and 10^−11 M to 10^−6 M for tyramine were applied to the cell lines. The fluorescence signals were normalized to values obtained in flpTM + PaOctβ2R-HA cells with the highest ligand concentration (=100%) and used to calculate concentration response curves for the receptor (Figure 6; Table 1).
(§6) Cells were transfected with 10 µg of the pcPaOctβ2R-HA construct by a modified calcium phosphate method following a previously established protocol. Transfected cells were selected in the presence of the antibiotics G418 (1 mg/mL) and hygromycin (100 µg/mL).
as §3

(UniProt Z9G3U5DLY1) [4] = experiment: Antagonist inhibition of octopamine-activated PaOctβ2R-HA (cAMP via CNG channel / Fluo-4); type: cell-based, Periplaneta americana; details: 1 × 10^−9 M octopamine, 1 × 10^−4 M IBMX
Description: as §1, §2, §3

(UniProt Z9G3U5DLY1) [5] = experiment: Antagonist inhibition of tyramine-activated PaOctβ2R-HA (cAMP via CNG channel / Fluo-4); type: cell-based, Periplaneta americana; details: 1 × 10^−7 M tyramine, 1 × 10^−4 M IBMX
Description: as §1, §2, §3

(UniProt Z9G3U5DLY1) [6] = experiment: Agonist-evoked cAMP production in PaOctβ2R-HA-expressing flpTM cells (CNG channel / Fluo-4 Ca2+ imaging); type: cell-based, Periplaneta americana; details: 100 µM IBMX
From the text: as §4, §5, §6, §3

flpTM cells = experiment: Control measurements in parental (non-transfected) flpTM cells (cAMP via CNG channel / Fluo-4); type: cell-based, human; details: concentration series of octopamine or tyramine; 100 µM IBMX
From the text: as §4, with “FLUO-4. No stimulation of adenylyl cyclase activity was recorded in flpTM cells when incubated with 0.1 or 1 µM concentrations of biogenic amines (Figure 5A). […]” for “FLUO-4.”
A stably transfected cell line was established to examine PaOctβ2R-HA receptor activity by Ca^2+ imaging. […] Changes in [Ca^2+]i were monitored with the Ca^2+-sensitive fluorescent dye Fluo-4. […] The plate was transferred into a fluorescence reader (FLUOstar Omega, BMG Labtech, Ortenberg, Germany) to monitor Fluo-4 fluorescence. […] Fluorescence emission was detected at 520 nm. Concentration series of various biogenic amines and synthetic receptor ligands were added once Fluo-4 fluorescence had reached a stable value in each well. The changes in Fluo-4 fluorescence were recorded automatically. […]

[7] = read-out: IC50, half-maximal inhibition of octopamine-activated PaOctβ2R-HA
[8] = read-out: pIC50 ± SD, octopamine-activated PaOctβ2R-HA (converted)
[9] = read-out: IC50, half-maximal inhibition of tyramine-activated PaOctβ2R-HA
[10] = read-out: pIC50 ± SD, tyramine-activated PaOctβ2R-HA (converted)
[11] = mean of n = 5 experiments, flpTM + PaOctβ2R-HA cells, read-out: EC50, mean value for half-maximal stimulation of PaOctβ2R-HA
[12] = mean of n = 5 experiments, flpTM + PaOctβ2R-HA cells, read-out: pEC50 ± SD, half-maximal stimulation of PaOctβ2R-HA (converted)
[13] = single representative eight-fold determination, read-out: EC50, half maximal activation of PaOctβ2R-HA (representative experiment, Figure 6)

COc1ccc2[nH]cc(CCN)c2c1 [5-MT, 5-methoxytryptamine]
effect on octopamine-stimulated PaOctβ2R-HA activity (in words) (PaOctβ2R-HA [1]): did not impair | effect on tyramine-stimulated PaOctβ2R-HA activity (in words) (PaOctβ2R-HA [2]): did not impair

CCCN(CCC)C1CCc2cccc(O)c2C1 (centres unmarked) [8-OH-DPAT, 8-hydroxy-2-(dipropylamino)tetralin]
effect on octopamine-stimulated PaOctβ2R-HA activity (in words) (PaOctβ2R-HA [1]): did not impair | effect on tyramine-stimulated PaOctβ2R-HA activity (in words) (PaOctβ2R-HA [2]): did not impair

NCCc1ccc(O)c(O)c1 [dopamine]
increase in [cAMP]i in PaOctβ2R-HA-expressing cells (PaOctβ2R-HA [3]): Neither dopamine, histamine nor serotonin caused an increase in [cAMP]i

NC1=NCC2c3ccccc3Cc3ccccc3N12 (centres unmarked) [epinastine]
Maximal Inhibition of octopamine-activated PaOctβ2R-HA activity (PaOctβ2R-HA [1]): 100% | IC50 ((UniProt Z9G3U5DLY1) [4]; [7]): ~12 nM and 12 nM | IC50 ((UniProt Z9G3U5DLY1) [4]; [8]): 11.4 nM | Maximal Inhibition of tyramine-activated PaOctβ2R-HA activity (PaOctβ2R-HA [2]): 100% | IC50 ((UniProt Z9G3U5DLY1) [5]; [9]): ~13 nM and 13 nM | IC50 ((UniProt Z9G3U5DLY1) [5]; [10]): 11.2 nM

NCCc1c[nH]cn1 [histamine]
increase in [cAMP]i in PaOctβ2R-HA-expressing cells (PaOctβ2R-HA [3]): Neither dopamine, histamine nor serotonin caused an increase in [cAMP]i

O=C(c1ccc(F)cc1)C1CCN(CCn2c(=O)[nH]c3ccccc3c2=O)CC1 [ketanserin]
Maximal Inhibition of octopamine-activated PaOctβ2R-HA activity (PaOctβ2R-HA [1]): 80% | Maximal Inhibition of octopamine-activated PaOctβ2R-HA activity (PaOctβ2R-HA [1]; listed as Ketanserin): approximately 80% | IC50 ((UniProt Z9G3U5DLY1) [4]; [7]): 5120 nM | IC50 ((UniProt Z9G3U5DLY1) [4]; [8]): 5120 nM | Maximal Inhibition of tyramine-activated PaOctβ2R-HA activity (PaOctβ2R-HA [2]): 50% | IC50 ((UniProt Z9G3U5DLY1) [5]; [9]): 1680 nM | IC50 ((UniProt Z9G3U5DLY1) [5]; [10]): 1710 nM

NCC(O)c1ccc(O)cc1 (centres unmarked) [octopamine]
increase in [cAMP]i in PaOctβ2R-HA-expressing cells (PaOctβ2R-HA [3]): showed increasing [cAMP]i | concentration at which the concentration-response curve saturated (PaOctβ2R-HA [3]): ≥ 10^−9 M | preference (selectivity) of PaOctβ2R-HA for octopamine over tyramine (PaOctβ2R-HA [3]; octopamine vs tyramine potency): 100 fold and ~ 100 fold | EC50 ((UniProt Z9G3U5DLY1) [6]; [11]): 0.467 nM | EC50 ((UniProt Z9G3U5DLY1) [6]; [12]): 0.447 nM | EC50 ((UniProt Z9G3U5DLY1) [6]; [13]): 0.297 nM | change in the fluorescence signal in non-transfected flpTM cells (flpTM cells): no change in the fluorescence signal was observed

Cc1ccc(N(CC2=NCCN2)c2cccc(O)c2)cc1 [phentolamine]
Maximal Inhibition of octopamine-activated PaOctβ2R-HA activity (PaOctβ2R-HA [1]): 100% | IC50 ((UniProt Z9G3U5DLY1) [4]; [7]): 257 nM | IC50 ((UniProt Z9G3U5DLY1) [4]; [8]): 247 nM | Maximal Inhibition of tyramine-activated PaOctβ2R-HA activity (PaOctβ2R-HA [2]): 100% | IC50 ((UniProt Z9G3U5DLY1) [5]; [9]): 256 nM | IC50 ((UniProt Z9G3U5DLY1) [5]; [10]): 255 nM

NCCc1c[nH]c2ccc(O)cc12 [serotonin, 5-hydroxytryptamine]
increase in [cAMP]i in PaOctβ2R-HA-expressing cells (PaOctβ2R-HA [3]): Neither dopamine, histamine nor serotonin caused an increase in [cAMP]i

NCCc1ccc(O)cc1 [tyramine]
increase in [cAMP]i in PaOctβ2R-HA-expressing cells (PaOctβ2R-HA [3]): showed increasing [cAMP]i | concentration at which the concentration-response curve saturated (PaOctβ2R-HA [3]): ≥ 10^−7 M | EC50 ((UniProt Z9G3U5DLY1) [6]; [11]): 43 nM | EC50 ((UniProt Z9G3U5DLY1) [6]; [12]): 40.7 nM | EC50 ((UniProt Z9G3U5DLY1) [6]; [13]): 36.8 nM | change in the fluorescence signal in non-transfected flpTM cells (flpTM cells): no change in the fluorescence signal was observed

COC(=O)[C@@H]1[C@H]2C[C@H]3c4[nH]c5ccccc5c4CCN3C[C@@H]2CC[C@@H]1O [yohimbine]
effect on octopamine-stimulated PaOctβ2R-HA activity (in words) (PaOctβ2R-HA [1]): did not impair | effect on tyramine-stimulated PaOctβ2R-HA activity (in words) (PaOctβ2R-HA [2]): did not impair
